Assays:
[1] = test system: nitric oxide production in LPS-treated cells; assay: Nitric oxide generation in LPS-treated cells (Griess reaction); format: cell-based; conditions: time and dose-dependent
Protocol: (§1) FIG. 4, comprising FIGS. 4A-4F, is a set of graphs, bar graphs and images illustrating anti-oxidant and anti-inflammatory effects of BRAP in vitro. […] The generation of ROS was monitored by flow cytometry as an indicator of DCF fluorescence. Fluorescence was analyzed in 10,000 cells with excitation at 480 nm and emission at 530 nm. FIG. 4C: Protective effect of BRAP on H2O2— stimulated adult rat cardiomyocytes. V=vehicle, *<0.05 vs. V+H2O2 (n=4). […] (n=4/group).
Nitric oxide is one of major sources of oxidative stress and a well-known pro-inflammatory mediator in the pathogenesis of inflammation (Lundberg, et al., 1997, Nature Medicine 3:30). The effects of BRAP on the generation of nitric oxide in LPS-treated cells were studied using a colorimetric assay based on the Griess reaction.

[2] = test system: adult rat ventricular cardiomyocytes (ARVC); assay: MTT cytotoxicity assay, ARVC; format: cell-based; conditions: concentrations as high as 5 mM, 24 hours of incubation
Source text: FIG. 3, comprising FIGS. 3A-3B, is a set of bar graphs illustrating biocompatibility profiles of BRAP assessed by MTT assay in mouse macrophage (RAW264.7) cells (FIG. 3A) and ARVC (FIG. 3B).

[3] = test system: mouse macrophage (RAW264.7) cells; assay: MTT cytotoxicity assay, RAW264.7; format: cell-based; conditions: concentrations as high as 5 mM, 24 hours of incubation
Protocol: FIG. 3, comprising FIGS. 3A-3B, is a set of bar graphs illustrating biocompatibility profiles of BRAP assessed by MTT assay in mouse macrophage (RAW264.7) cells (FIG. 3A) and ARVC (FIG. 3B). FIG. 19 is a bar graph showing the results of assessing cytotoxicity of BRAP-encapsulated PLGA microparticles against RAW264.7 cells in vitro. Cell viability was determined by the 3-(4,5-dimethylthiazil-2yl)-2,5-diphenyltetrazolium bromide (MTT) assay 24 hours after addition of BRAP-encapsulated PLGA microparticles to cells. “PB” represents BRAP-encapsulated PLGA microparticles. The percentages indicate the weight content of BRAP in the particles. Values shown represent mean±s.d. (n=4). […] 3-(4,5-Dimethylthiazil-2yl)-2,5-diphenyltetrazolium bromide (MTT) assay was performed to evaluate the cytotoxicity of BRAP. NIH 3T3 cells were cultured at a density of 1×10^5 cells/well in a 24 well plate, and RAW 264.7 cells and HEK cells were also cultured at a density of 2×10^5 cells/well in a 24 well plate. Cells were incubated for 24 hours to reach ˜80% confluency. Cells were treated with various amount of BRAP and incubated for 24 hours. […] After 10 min incubation, the absorbance at 570 nm was measured using a microplate reader (Biotek Instruments, Winooski, Vt.). The cell viability was determined by comparing the absorbance of BRAP treated cells that of control cells.

[4] = test system: mouse macrophage (RAW 264.7) cells stimulated by LPS; assay: Intracellular ROS generation in LPS-stimulated macrophages (DCFH-DA, flow cytometry); format: cell-based; conditions: BRAP 0.25 mM, compared with 0.5 mM of HBA; LPS 1 μg/mL
Protocol: as §1
The anti-oxidant activities of BRAP were examined using mouse macrophage (RAW 264.7) and fibroblast (NIH/3T3) cells stimulated by LPS (lipopolysaccharide) (FIGS. 4A-4B). Intracellular ROS production in the stimulated cells was analyzed by flow cytometry using DCFH-DA ([…]-diacetate), which can be oxidized by the action of various intracellular oxidants such as H2O2 and hydroxyl radical to become fluorescent […] (DCF) (Kim, et al., 2011, Biomat. 32:3021; Cho, et al., 2012, Adv. Funct. Mat. 22:4038). Untreated cells have no significant DCF fluorescence.

[5] = Cumulative toxicity, daily administration for 7 days in mice; format: in vivo, mouse; conditions: 1.5 mg/kg/day intraperitoneal
Protocol: FIG. 7, comprising FIGS. 7A-7C, is a set of images and bar graphs illustrating the safety profile of BRAP (1.5 mg/kg/day) after daily intraperitoneal administration for 7 days. FIGS. 7A-7B: Creatinine (FIG. 7A) and ALT (FIG. 7B) levels 7 days after daily BRAP administration. FIG. 7C: Representative H/E stained tissue sections of different organs 7 days after daily BRAP administration (n=4/group).
To determine the potential cumulative toxic effects of BRAP, BRAP (1.5 mg/kg/day) was administered daily for 7 days in mice.

CC1(CO)COB(c2ccc(CO)cc2)OC1 [BRAP, (4-(5-(hydroxymethyl)-5-methyl-1,3,2-dioxaborinan-2-yl)phenyl)methanol]
inhibition of nitric oxide production [1]: inhibitory effects
cytotoxicity (MTT) [2]: no significant cytotoxicity
cytotoxicity (MTT) [3]: no significant cytotoxicity
inhibition of LPS-induced ROS generation [4]: significantly stronger inhibitory effects
histology of different organs (H/E) [5]: no significant histological evidence of accumulated toxicity
serum test for hepatic function (ALT) [5]: no significant abnormalities
serum test for renal function (creatinine) [5]: no significant abnormalities
